Assay results taken from PubChem BioAssay AID1508612.

Assay: passive permeability, PAMPA, ADME assay (AID 1508612)
Settings: pH 7.4, 30.0 min, 50.0 µM

Compound | Papp [×10⁻⁶ cm/s]
Cc1ccc(NC(=O)N(Cc2cn(C)c3ccccc23)C2CCCCC2)cc1C | 20.7
O=C1NC(=S)NC(=O)C1=Cc1cccn1-c1ccc(O)cc1 | 44.1
CCc1cccc(CC)c1-n1c(C=C(C)C)c(C(=O)N2CCNCC2)cc(-c2nc(-c3ccc(C(F)(F)F)cc3)cs2)c1=O | 33.8
Clc1ccc(Nc2nc(-c3ccncc3)nc3ccccc23)cc1Cl | 76.1
Nc1scc2c(C(=O)O)nn(-c3ccccc3)c(=O)c12 | < 1
Ic1ccccc1CNC1C2CCN(CC2)C1C(c1ccccc1)c1ccccc1 (stereo not drawn) | > 1000
CCn1nnnc1Sc1ncnc2scc(-c3ccc(C)cc3)c12 | > 1000
COc1ccc(C(=O)N[C@@H]2CCC[C@@H]2C(=O)N2CCC(Cc3ccccc3)CC2)cc1 | > 1000
Nc1cccc(CNc2ccc(S(=O)(=O)Nc3nccs3)cc2)c1O | < 1
COc1ccc(NC(=O)c2c(C)c(C(C)=O)c(C)n2C)cc1S(=O)(=O)Nc1ccc(Br)cc1 | < 1
Cc1ccnc(NC(=S)N2CCN(c3cccc(C(F)(F)F)c3)CC2)c1 | > 1000
CCCCOc1ccc(CNC(=O)c2cc3n(n2)CCCN(Cc2ccc(C)cc2)C3=O)cc1 | < 1
CCOC(=O)N1CCc2c(sc(NCc3sccc3C)c2C(=O)Nc2cc(Cl)ccc2OC)C1 | < 1
Cc1ccc(S(=O)(=O)NCCC(=O)Nc2nc(-c3ccccc3)cs2)cc1 | 861
O=C(Nc1nc(-c2ccccc2)cs1)c1ccncc1NS(=O)(=O)c1ccc(Cl)cc1 | 294
NC(=O)NCC(=O)N[C@H]1CC[C@H](Nc2nccc(-c3ccncc3)n2)C1 | < 1
Fc1cc(Nc2nc(-c3ccncc3)nc3ccccc23)ccc1-c1cccc(OC(F)(F)F)c1 | 23.5
CCC[C@H](NC(=O)C(C#N)=Cc1cccc(Br)n1)c1ccccc1 | > 1000
COc1cc(Cl)c(C)cc1Nc1c2c(nc3ccccc13)CCC2 | > 1000
Cc1ccc(NC(=O)NCC2CCN(Cc3cccc(Cl)c3)CC2)cc1Cl | 746
CSc1nn(Cc2cccc(C)c2)c(N)c1S(=O)(=O)c1ccccc1 | 516
Cc1ccc(CN2CCOC[C@H]2c2ncc(-c3cccc(F)c3)[nH]2)cc1 | > 1000
CC(=O)Nc1ccc(OCc2cn(CC(=O)c3ccc(O)cc3)nn2)cc1 | < 1
CN1CC=C(c2nc(Nc3ccc(F)c(F)c3)c3ccccc3n2)CC1 | > 1000
CNc1ncc(-c2cccc3ccccc23)o1 | > 1000
CCc1ccc(CNc2ccc3c(c2)ncn3C(C)(C)C)cc1 | > 1000
O=C1NCc2cc(-c3cc4c(ccn4Cc4ccncc4)c(N4CCOCC4)n3)ccc21 | 189

Compound | Papp [×10⁻⁶ cm/s]
Nc1nc2c(s1)C(c1ccc(F)c(F)c1)CC(=O)N2 (stereo not drawn) | 265
COCCN1CCNc2nc(COc3ccc(C(C)C)cc3)n(Cc3ccccc3)c2C1=O | 12
COCCCNC(=O)c1cc2cc(S(=O)(=O)N(C)C)ccc2n1C | 77.2
Cc1ccc(-n2c(C)cc(C3=NNC(=NC4CC4)SC3)c2C)cc1C | > 1000
FC(F)(F)Oc1cccc(Nc2nc(-c3ccncc3)nc3ccccc23)c1 | 226
Cc1ccc(S(=O)(=O)Nc2cnccc2C(=O)Nc2nc(-c3ccc(-c4ccccc4)cc3)cs2)cc1 | 5.92
NC(=O)C1CCN(c2nc(-c3ccc4occc(=O)c4c3)cs2)CC1 | 106
Cc1cccc(-n2cnc3cc(C(=O)N4CCCC(C(C)C)C4)ccc32)c1 (stereo not drawn) | > 1000
CN1CCN(c2ccc(Nc3c4ccccc4nc4ccccc34)cc2)CC1 | > 1000
CN1CCCN(C(c2ccccc2)c2ccc(Cl)cc2)CC1 (stereo not drawn) | 652
O=S(=O)(Nc1nccs1)c1ccc(NCc2cccc(F)c2O)cc1 | 2.11
COc1ccc(CN2CCN(C(=O)c3cc4c(s3)CCC4)CC2)cc1 | 997
Cc1cc(NS(=O)(=O)c2ccc(NC(=O)Cc3ccc(F)c(Cl)c3)cc2)no1 | 10.4
CCOc1ccccc1C(=O)NC1CCN(c2cc(C)cc(C)c2)C1=O (stereo not drawn) | > 1000
CCOC(=O)c1c(C)c(-c2ccccc2)n(CC(=O)NCc2ccccc2)c1C | > 1000
Nc1nc2c(s1)C(c1ccccc1OCc1ccccc1Cl)CC(=O)N2 (stereo not drawn) | 509
COc1cccc(-n2nc(C(=O)O)cc2-c2ccc(C3CCCCC3)c(Cl)c2)c1 | > 1000
CCN1C(=O)c2ccccc2[S@](=O)c2ccc(C(=O)NCc3ccc(F)cc3)cc21 | > 1000
Cc1ccc(S(=O)(=O)Nc2cnccc2C(=O)Nc2nc(-c3ccc(Cl)cc3)cs2)cc1 | 38.2
COc1ccccc1C(=O)Nc1nc2nc(C)cc(=O)n2[nH]1 | 7.8
COc1ccc(-c2ccc3ncc(Nc4ccc(C(N)=O)cc4)n3n2)cc1OC | 149
CC(=O)c1c(C)[nH]c(C(=O)Nc2ccc(Cl)cc2)c1C | 364
O=C(NCCCn1ccnc1)c1ccc(-c2ncc3cnc(-c4cccc(F)c4)cn23)cc1 | < 1
Cc1cccc2c(C(=O)O)cc(-c3cccs3)nc12 | 18.8
COC(=O)c1ccc(Oc2nc3c(c(=O)n(C)c(=O)n3C)n2CCC(C)C)cc1 | > 1000
Cc1ccc2c(c1)[nH]c1c(N3CCN(Cc4ccccc4)CC3)ncnc12 | > 1000
